Laboratory results published in PubChem BioAssay (NCI).
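Growth conditions: 96-well plates. Treatment: test compound, 48 hours, 5 concentrations. Analysis: linear interpolation between bracketing concentrations; unreached endpoints set to highest concentration. TGI: total growth inhibition.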

Assays:
Experiment in all cases: DTP human tumour cell line panel, 48 h
[1] = test system: SF-268 CNS
[2] = test system: NCI-H460 lung
[3] = test system: COLO 205 colon
[4] = test system: MCF7 breast
[5] = test system: SNB-19 CNS
[6] = test system: OVCAR-5 ovarian
[7] = test system: OVCAR-3 ovarian
[8] = test system: SR leukemia
[9] = test system: SK-MEL-5 melanoma
[10] = test system: BT-549 breast
[11] = test system: SK-OV-3 ovarian
[12] = test system: ACHN renal
[13] = test system: CAKI-1 renal
[14] = test system: OVCAR-8 ovarian
[15] = test system: SK-MEL-2 melanoma
[16] = test system: UACC-62 melanoma
[17] = test system: A549 NSCLC
[18] = test system: SK-MEL-28 melanoma
[19] = test system: SF-295 CNS
[20] = test system: HCT-116 colon
[21] = test system: TK-10 renal
[22] = test system: HCC-2998 colon
[23] = test system: NCI-H522 lung
[24] = test system: HOP-62 NSCLC
[25] = test system: U251 CNS
[26] = test system: UO-31 renal
[27] = test system: IGROV1 ovarian
[28] = test system: NCI/ADR-RES ovarian
[29] = test system: HCT-15 colon
[30] = test system: MOLT-4 leukemia
[31] = test system: RPMI-8226 leukemia
[32] = test system: 786-0 renal
[33] = test system: M14 melanoma
[34] = test system: CCRF-CEM leukemia
[35] = test system: HT29 colon
[36] = test system: NCI-H23 lung
[37] = test system: DU-145 prostate
[38] = test system: UACC-257 melanoma
[39] = test system: HOP-92 NSCLC
[40] = test system: RXF 393 renal
[41] = test system: HL-60(TB) leukemia
[42] = test system: K-562 leukemia
[43] = test system: PC-3 prostate
[44] = test system: SN12C renal
[45] = test system: EKVX NSCLC
[46] = test system: SF-539 CNS
[47] = test system: MALME-3M melanoma
[48] = test system: OVCAR-4 ovarian
[49] = test system: SW-620 colon
[50] = test system: MDA-N
[51] = test system: KM12 colon
[52] = test system: SNB-75 CNS
[53] = test system: NCI-H226 lung
[54] = test system: A498 renal
[55] = test system: T-47D breast
[56] = test system: LOX IMVI melanoma
[57] = test system: MDA-MB-435
[58] = test system: HS 578T breast
[59] = test system: MDA-MB-231 breast

For COc1ccc(/C=C(\C#N)c2ccccn2)cc1OC, the TGI [1] was greater than 100 µM, the TGI [2] was greater than 100 µM and the TGI [3] was greater than 100 µM. The TGI [4] was 72.6 µM, the TGI [5] was greater than 100 µM and the TGI [6] was greater than 100 µM. For the same compound, the TGI [7] was greater than 100 µM, the TGI [8] was greater than 100 µM and the TGI [9] was greater than 100 µM. The TGI [10] was 45.4 µM, the TGI [11] was greater than 100 µM and the TGI [12] was greater than 100 µM. The TGI [13] was greater than 100 µM, the TGI [14] was greater than 100 µM and the TGI [15] was greater than 100 µM. The TGI [16] was greater than 100 µM, the TGI [17] was greater than 100 µM and the TGI [18] was greater than 100 µM. The TGI [19] was 85.3 µM, the TGI [20] was greater than 100 µM and the TGI [21] was greater than 100 µM. The TGI [22] was greater than 100 µM, the TGI [23] was greater than 100 µM and the TGI [24] was greater than 100 µM. It also gave a TGI [25] of 42 µM, a TGI [26] of 82.2 µM and a TGI [27] greater than 100 µM. It also gave a TGI [28] of 55.7 µM, a TGI [29] greater than 100 µM and a TGI [30] greater than 100 µM. For the same compound, the TGI [31] was greater than 100 µM, the TGI [32] was greater than 100 µM and the TGI [33] was greater than 100 µM. The TGI [34] was greater than 100 µM, the TGI [35] was greater than 100 µM and the TGI [36] was greater than 100 µM. For the same compound, the TGI [37] was greater than 100 µM, the TGI [38] was greater than 100 µM and the TGI [39] was 48.7 µM. For the same compound, the TGI [40] was greater than 100 µM, the TGI [41] was greater than 100 µM and the TGI [42] was greater than 100 µM. For the same compound, the TGI [43] was 65.7 µM, the TGI [44] was greater than 100 µM and the TGI [45] was 56.9 µM. For the same compound, the TGI [46] was greater than 100 µM, the TGI [47] was greater than 100 µM and the TGI [48] was greater than 100 µM. The TGI [49] was greater than 100 µM, the TGI [50] was greater than 100 µM and the TGI [51] was greater than 100 µM. It also gave a TGI [52] of 84.9 µM and a TGI [53] of 95.8 µM.
O=C(O)COc1c(Cl)cc(Cl)c(C(c2c(Cl)cc(Cl)c(OCC(=O)O)c2Cl)C(Cl)(Cl)Cl)c1Cl was tested, and the TGI [1] was greater than 100 µM, the TGI [2] was 89.7 µM and the TGI [3] was greater than 100 µM. For the same compound, the TGI [4] was greater than 100 µM, the TGI [5] was greater than 100 µM and the TGI [6] was 67.6 µM. It also gave a TGI [9] of 40.6 µM, a TGI [10] of 51.3 µM and a TGI [11] of 47.2 µM. It also gave a TGI [12] greater than 100 µM, a TGI [54] greater than 100 µM and a TGI [13] greater than 100 µM. For the same compound, the TGI [14] was greater than 100 µM, the TGI [15] was 42.2 µM and the TGI [16] was 37.9 µM. For the same compound, the TGI [17] was 83.8 µM, the TGI [55] was greater than 100 µM and the TGI [18] was greater than 100 µM. The TGI [56] was greater than 100 µM, the TGI [19] was 51.9 µM and the TGI [20] was greater than 100 µM. The TGI [57] was 78.2 µM, the TGI [21] was 95.8 µM and the TGI [22] was 28.6 µM. It also gave a TGI [23] greater than 100 µM, a TGI [24] of 15.7 µM and a TGI [25] of 77.4 µM. For the same compound, the TGI [58] was greater than 100 µM, the TGI [26] was 55.2 µM and the TGI [27] was greater than 100 µM. The TGI [28] was greater than 100 µM, the TGI [29] was 76 µM and the TGI [30] was greater than 100 µM. The TGI [31] was 85.9 µM, the TGI [32] was greater than 100 µM and the TGI [33] was 46.8 µM. For the same compound, the TGI [35] was 92.6 µM, the TGI [36] was 62.3 µM and the TGI [37] was greater than 100 µM. The TGI [38] was 59.8 µM, the TGI [39] was 62.4 µM and the TGI [40] was 92.7 µM. It also gave a TGI [41] of 59.9 µM, a TGI [42] greater than 100 µM and a TGI [43] greater than 100 µM. It also gave a TGI [44] greater than 100 µM, a TGI [59] of 61.3 µM and a TGI [46] greater than 100 µM. For the same compound, the TGI [47] was 76.7 µM, the TGI [48] was greater than 100 µM and the TGI [49] was greater than 100 µM. It also gave a TGI [50] greater than 100 µM, a TGI [51] greater than 100 µM and a TGI [52] of 93.5 µM. It also gave a TGI [53] of 64.1 µM.
